Key:
TrkB kinase = molecular target: T1, TrkB kinase (Mus musculus, UniProt P15209); conditions: WT mice (Chen et al. 2005, Liu et al. 2013); cited from earlier work
T1 construct: host or cells: wild type (C57/bl6) mice, endogenous TrkB

kindled TrkB^F616A mice [1] = test: Kindling model, 1NMPP1 treatment initiated after an evoked seizure (chemical-genetic inhibition of TrkB kinase); assay type: in vivo
Description: All animal procedures were approved by the Institutional Animal Care and Use Committee (IACUC) at Duke University and conform to the National Institutes of Health and Duke University institutional guidelines for the care and use of experimental animals. Animals were maintained on a 12-hour light/dark cycle with food and water available ad libitum. Wild type (WT) adult (8-12 wk) C57/bl6 male mice were obtained from Charles River. TrkB^F616A mice were originally obtained from Dr. David Ginty (Chen et al. 2005) and backcrossed to the C57/bl6 line for at least seven generations. This knockin mouse harbors a point mutation on the TrkB allele, substituting an alanine for phenylalanine within the ATP binding pocket of the TrkB kinase domain. This mutation renders TrkB protein uniquely susceptible to kinase inhibition by small molecule derivatives of the general kinase inhibitor PP1, including 1-(1,1-dimethylethyl)-3-(1-naphthalenylmethyl)-1H-pyrazolo[3,4-d]pyrimidin-4-amine (1NMPP1). […] Both male and female adult (8-12 wk) homozygous mice were used.
(§1) Video and EEG recordings were analyzed by a blinded, trained observer who quantified behavioral seizure class and duration of both electrographic and behavioral seizure.
(§2) Experiments were performed as previously described (He et al. 2010, He et al. 2014). A bipolar stimulating and recording electrode was inserted into the right amygdala (1.0 mm posterior, 2.9 mm lateral to bregma; 4.6 mm below dura). A skull screw was placed over the left frontal lobe as a ground electrode. After a postoperative recovery period of at least 5 days, animals were connected to a Grass Stimulator and monitored by both video and EEG. The current required to evoke an electrographic seizure (electrographic seizure threshold [EST]) was determined by applying a 1 s train of 1 msec biphasic-rectangular pulses at 60 Hz beginning at 20 μA. Additional stimulations were given in 20 μA increments at 1 min intervals until an electrographic seizure was detected. […]
Design of individual experiments is presented in panel A of FIGS. 1-5. All “post-kindling seizures” (see FIG. 1A) were evoked with a stimulation intensity determined by assessing the EST a second time, typically 6 days after evoking the “final kindled seizure” the EST was determined by administering stimulations in 20 μA increments every 1 min, beginning at 20 μA, until an electrographic seizure was evoked. […]

kindled TrkB^F616A mice [2] = test: Kindling model, 1NMPP1 treatment in the absence of a preceding evoked seizure; assay type: in vivo; conditions: no preceding evoked seizure, seizure evoked six days after cessation
Protocol: (§3) Experiments were performed as previously described (He et al. 2010, He et al. 2014). A bipolar stimulating and recording electrode was inserted into the right amygdala (1.0 mm posterior, 2.9 mm lateral to bregma; 4.6 mm below dura). A skull screw was placed over the left frontal lobe as a ground electrode. After a postoperative recovery period of at least 5 days, animals were connected to a Grass Stimulator and monitored by both video and EEG. The current required to evoke an electrographic seizure (electrographic seizure threshold [EST]) was determined by applying a 1 s train of 1 msec biphasic-rectangular pulses at 60 Hz beginning at 20 μA. Additional stimulations were given in 20 μA increments at 1 min intervals until an electrographic seizure was detected. Animals then received two stimulations per day at the EST, with the behavioral seizure scores classified according to a modification of the Racine scale for mice (Borges et al., 2003; Racine, 1972): 0, normal activity; 1, arrest and rigid posture; 2, head nodding; 3, unilateral forelimb clonus; 4, rearing with bilateral forelimbs clonus; 5, rearing and falling; 6, tonic-clonic seizures with violent running and/or jumping. The criterion for “kindled” was the occurrence of three consecutive seizures of class 4 or greater, with limb clonus/tonus lasting at least 12 s.
(§4) Design of individual experiments is presented in panel A of FIGS. 1-5. All “post-kindling seizures” (see FIG. 1A) were evoked with a stimulation intensity determined by assessing the EST a second time, typically 6 days after evoking the “final kindled seizure” the EST was determined by administering stimulations in 20 μA increments every 1 min, beginning at 20 μA, until an electrographic seizure was evoked.
Prior to each administration, stock 100 mM 1NMPP1 was dissolved in a solubilization buffer containing 0.9% NaCL and 2.5% Tween-20 to a concentration of 1.67 mg/mL and dosed at 16.6 ug/g IP every 12 h for a total of five treatments. Vehicle injection served as a control. […]

kindled WT mice = test: Kindling model, treatment initiated after an evoked seizure in wild type mice; assay type: in vivo; conditions: 1NMPP1 treatment of WT animals (n=9) following Post-Kindling Seizure #1, p<0.01
Description: All animal procedures were approved by the Institutional Animal Care and Use Committee (IACUC) at Duke University and conform to the National Institutes of Health and Duke University institutional guidelines for the care and use of experimental animals. Animals were maintained on a 12-hour light/dark cycle with food and water available ad libitum. Wild type (WT) adult (8-12 wk) C57/bl6 male mice were obtained from Charles River. TrkB^F616A mice were originally obtained from Dr. David Ginty (Chen et al. 2005) and backcrossed to the C57/bl6 line for at least seven generations. […]
as §1
as §2, with “A bipolar stimulating and recording electrode was inserted into the right amygdala (1.0 mm posterior, 2.9 mm lateral to bregma; 4.6 mm below dura). A skull screw was placed over the left frontal lobe as a ground electrode.” left out

kindled mice = test: Kindling model, carbamazepine treatment after an evoked seizure; assay type: in vivo; conditions: carbamazepine 20 mg/kg IP at four hour intervals for two days following Post-Kindling Seizure #1
Protocol: as §3, §4
Carbamazepine (Sigma) was dissolved in a solubilization buffer of 2% Tween-80 and 70% propylene glycol at a concentration of 2 mg/mL and administered at a dose of 20 mg/kg, a dose of carbamazepine sufficient to produce therapeutic blood levels (Grabenstatter et al. 2007). Treatments were given every 4 h for two days. […]

[3] = test system: epileptic animals (KA-SE); test: Spontaneous recurrent seizures (video-EEG) after kainic acid-induced status epilepticus (KA-SE model of TLE); assay type: in vivo, mice; conditions: six animals; for SRS during two weeks following cessation of treatment: after carbamazepine 800 mg/kg/day in food pellets for two weeks; for SRS during two weeks on treatment: carbamazepine 800 mg/kg/day in food pellets for two weeks
Description: Determining whether pY816 may be beneficial in epileptic animals required modification of our study of the kainic acid (KA)-status epilepticus (SE) model. To more closely mimic the clinical scenario in which patients seek medical attention for established TLE, we induced KA-SE and then conducted video-EEG recordings to detect spontaneous recurrent seizures during baseline periods of two to four weeks until they developed TLE prior to treating with pY816 peptide. In contrast to just three days of treatment with pY816 deployed in previous studies, we sought a more prolonged treatment with pY816 for the current experiments, namely two weeks. The intravenous route of administration used for three days in the prior studies was not feasible for two weeks, leading us to ask whether treatment via intraperitoneal route could inhibit activation of PLCγ1. We used the phosphorylation of residue Y783 of PLCγ1 detected on western blot of brain lysates as a surrogate measure of PLCγ1 activation.
Having verified that intraperitoneal administration of pY816 inhibited PLCγ1 activation, we then asked whether treatment with pY816 initiated after onset of epilepsy and continued for two weeks would reduce the severity of epilepsy or even induce a remission. Towards that end, we induced KA-SE but then followed the animals for several weeks until they developed TLE as assessed by detection of SRS in continuous video-EEG recordings. We quantified the number of SRS in each animal by blinded review of video-EEG recordings during three distinct two week epochs (FIG. 8): a) baseline; b) treatment with pY816 (n=9) or Scr control (n=6), 20 mg/kg IP twice daily for two weeks (on Tx); c) following termination of treatment (Post Tx). As noted in FIG. 8, following induction of status epilepticus induced by infusion of kainic acid into amygdala (Gu et al 2015) animals underwent continuous video-EEG recording to detect spontaneous recurrent seizures. Following baseline recording of two weeks, animals were treated with either pY816 or Scr control peptide (20 mg/kg) twice daily for two weeks (Day 15-28). Video-EEG recording continued for two weeks following termination of treatment (Post-treatment).
Results are shown in FIG. 9, where each symbol represents the number of seizures experienced by a given animal during Baseline, Treatment (Tx), or Post-treatment (Post Tx) periods. Horizontal bars designate median. Treatment (Tx) consisted of either pY816 or Scr control given 20 mg/kg twice daily for two weeks. Note that seizure detection was performed by analyses of video-EEG recordings by two blinded investigators.
Antiseizure drugs in current clinical use provide symptomatic relief of seizures in many but not all patients, but seizures typically recur upon cessation of the drug. To verify that similar findings occur in our animal model, we tested the effect of an antiseizure drug in current clinical use in our model (carbamazepine). We infused additional animals with KA and assessed the occurrence of SRS with continuous video-EEG monitoring for several weeks. […] Thus, like TLE in humans, continuous treatment with an antiseizure drug suppresses seizures, yet seizures recur upon discontinuation of treatment.

T1 sequence (P15209 32-821): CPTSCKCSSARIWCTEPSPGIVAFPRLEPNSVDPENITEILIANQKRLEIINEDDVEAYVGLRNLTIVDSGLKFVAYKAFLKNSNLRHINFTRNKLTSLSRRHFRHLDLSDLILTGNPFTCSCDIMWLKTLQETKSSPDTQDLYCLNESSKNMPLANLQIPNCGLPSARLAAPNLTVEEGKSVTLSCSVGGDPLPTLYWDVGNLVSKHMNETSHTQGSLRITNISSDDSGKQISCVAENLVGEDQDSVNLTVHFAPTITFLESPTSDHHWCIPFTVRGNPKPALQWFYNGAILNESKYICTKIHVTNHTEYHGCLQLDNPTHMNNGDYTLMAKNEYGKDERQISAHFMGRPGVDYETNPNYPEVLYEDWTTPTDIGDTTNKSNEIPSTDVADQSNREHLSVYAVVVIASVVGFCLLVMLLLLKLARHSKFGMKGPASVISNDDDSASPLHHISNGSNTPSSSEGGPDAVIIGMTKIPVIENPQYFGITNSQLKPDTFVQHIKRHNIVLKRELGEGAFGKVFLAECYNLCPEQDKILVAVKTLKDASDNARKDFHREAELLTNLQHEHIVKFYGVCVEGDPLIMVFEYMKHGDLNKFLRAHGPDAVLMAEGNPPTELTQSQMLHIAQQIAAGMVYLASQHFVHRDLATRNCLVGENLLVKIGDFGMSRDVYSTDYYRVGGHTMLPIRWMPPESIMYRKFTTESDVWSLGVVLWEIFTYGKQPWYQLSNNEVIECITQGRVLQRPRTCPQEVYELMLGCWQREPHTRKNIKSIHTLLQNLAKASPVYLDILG

Row | Structure (SMILES) | Detectable effect in WT mice (TrkB kinase) | Duration of electrographic seizure, Post-Kindling Seizure #2 (kindled TrkB^F616A mice [1]; 1NMPP1 16.6 ug/g IP every 12 h, five treatments, plus 25 μM in drinking water, initiated immediately following Post-Kindling Seizure #1, n=16, vehicle 56.6±7.6 s, p<0.01, Final Kindled Sz 43.8±4.5 s) [s] | Duration of behavioral seizure, Post-Kindling Seizure #2 (kindled TrkB^F616A mice [1]; 1NMPP1 16.6 ug/g IP every 12 h, five treatments, plus drinking water, after Post-Kindling Seizure #1, vehicle 139.8±16.5 s, p<0.01) [s] | Behavioral seizure class of Post-Kindling Seizure #2 (kindled TrkB^F616A mice [1]; 1NMPP1 after Post-Kindling Seizure #1, versus vehicle) | Number of animals with subconvulsive (less than Class 4) Post-Kindling Sz #2 (kindled TrkB^F616A mice [1]; 1NMPP1 following Post-Kindling Sz #1, 33 animals received 1NMPP1 or pY816, controls 1 of 28) | Duration of electrographic seizure versus vehicle (kindled TrkB^F616A mice [2]; 1NMPP1 for two days (IP and drinking water) six days after final kindled seizure) | Duration of behavioral seizure versus vehicle (kindled TrkB^F616A mice [2]; 1NMPP1 for two days) | Seizure class versus vehicle (kindled TrkB^F616A mice [2]; 1NMPP1 for two days) | Duration of electrographic seizure, Post-Kindling Sz #2 (kindled WT mice; Post-Kindling Sz #1 35.1±5.3 s) [s] | Duration of behavioral seizure, Post-Kindling Sz #2 (kindled WT mice; Post-Kindling Sz #1 72.4±10.2 s) [s] | Duration of behavioral seizure, Post-Kindling Sz #2, versus vehicle (kindled mice) | Seizure class, Post-Kindling Sz #2, versus vehicle (kindled mice) | Duration of electrographic seizure, Post-Kindling Sz #2, versus vehicle (kindled mice; Sz #2 evoked fourteen days after last dose) | SRS during two weeks following cessation of treatment [3] | SRS during two weeks following cessation of treatment ([3]; listed as Carbamazepine) | SRS during two weeks on treatment [3] | SRS during two weeks on treatment ([3]; listed as Carbamazepine)
1 | CC(C)(C)n1nc(Cc2cccc3ccccc23)c2c(N)ncnc21 [1NMPP1, 1-(1,1-dimethylethyl)-3-(1-naphthalenylmethyl)-1H-pyrazolo[3,4-d]pyrimidin-4-amine] | does not have any detectable effect | 29.2 ± 3.8 | 63.5 ± 10 | nonsignificant trend toward reduction | 4 | No differences were detected | No differences were detected | No differences were detected | 67.4 ± 13.5 | 107.6 ± 10.5 |  |  |  |  |  |  | 
2 | NC(=O)N1c2ccccc2C=Cc2ccccc21 [carbamazepine, Carbamazepine] |  |  |  |  |  |  |  |  |  |  | No differences were detected | No differences were detected | No differences were detected | seizures recurred in each animal | seizures recurred following cessation of treatment in each of the six animals | reduced in each of the six animals | effectively suppressed SRS in all but one animal

Reference: patent publication US20190269752A1, “Methods for the Prevention or Treatment of Epilepsy” (Duke University, priority 2018, published 2019)
